Assay results reported in PMC6979384, “Characterization of the plant homeodomain (PHD) reader family for their histone tail interactions” (Epigenetics & Chromatin, 2020).

Columns and labels:
Assay in all cases: Histone peptide microarray
Type in all cases: binding, human
Conditions in all cases: histone peptide array
[1] = system: DPF2 (PPC2W2)
Summary of the method: (§1)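 Histone peptide library (293 synthetic peptides, single/combinatorial PTMs) arrayed and probed with 0.5 μM purified GST-PHD domain; optimized protocol; quadruplicate mean and SD reported.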

[2] = system: PHF21A
Summary of the method: as §1

[3] = system: TAF3
Summary of the method: as §1

[4] = system: BAZ2B
Summary of the method: as §1

[5] = system: ING4
Summary of the method: as §1

[6] = system: KDM4C (TTP)
Summary of the method: as §1

[7] = system: BPTF (PB)
Summary of the method: as §1

[8] = system: CHD5 (PPCC)
Summary of the method: as §1

[9] = system: ING1
Summary of the method: as §1

[10] = system: DIDO1
Summary of the method: as §1

[11] = system: SP140L
Summary of the method: as §1

[12] = system: ING5
Summary of the method: as §1

[13] = system: ING2
Summary of the method: as §1

[14] = system: TRIM66 (PB)
Summary of the method: as §1

[15] = system: PHF13
Summary of the method: as §1

[16] = system: AIRE (PP)
Summary of the method: as §1

[17] = system: PHF2
Summary of the method: as §1

[18] = system: KDM5A (3)
Summary of the method: as §1

[19] = system: KDM7A
Summary of the method: as §1

[20] = system: CHD4 (PPCC)
Summary of the method: as §1

[21] = system: MORC3 (CW)
Summary of the method: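 Steps: express and purify GST-tagged PHD reader; incubate 0.5 μM protein on a peptide microarray (293 histone peptides, single or combined PTMs) following an optimized protocol; average signal across 4 replicates.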

[22] = system: PHRF1 (RP)
Summary of the method: as §1

[23] = system: PHF23
Summary of the method: as §1

[24] = system: KDM5B (1)
Summary of the method: as §1

[25] = system: CHD5 (PCC)
Summary of the method: as §1

[26] = system: KDM5A (1)
Summary of the method: as §1

[27] = system: RAG2
Summary of the method: as §1

[28] = system: KDM5B (3)
Summary of the method: as §1

[29] = system: ING3
Summary of the method: as §1

[30] = system: MLL5
Summary of the method: as §1

[31] = system: PHF8
Summary of the method: as §1

[32] = sheet "Array Heatmap", GST-tagged reader, total n = 4

H3T6p + K9ac + K14ac + K18ac: H3 1-20
Array Heatmap signal, DPF2 (PPC2W2) [1, 32]: 0.6625
Array Heatmap signal, PHF21A [2, 32]: 0.4965
Array Heatmap signal, TAF3 [3, 32]: 0.2973
Array Heatmap signal, BAZ2B [4, 32]: 0.5434
Array Heatmap signal, ING4 [5, 32]: 0.4858
Array Heatmap signal, KDM4C (TTP) [6, 32]: 0.5471
Array Heatmap signal, BPTF (PB) [7, 32]: 0.3772
Array Heatmap signal, CHD5 (PPCC) [8, 32]: 0.5917
Array Heatmap signal, ING1 [9, 32]: 0.5258
Array Heatmap signal, DIDO1 [10, 32]: 0.7306
Array Heatmap signal, SP140L [11, 32]: 0.3823
Array Heatmap signal, ING5 [12, 32]: 0.4002
Array Heatmap signal, ING2 [13, 32]: 0.6332
Array Heatmap signal, TRIM66 (PB) [14, 32]: 0.6292
Array Heatmap signal, PHF13 [15, 32]: 0.6581
Array Heatmap signal, AIRE (PP) [16, 32]: 0.4905
Array Heatmap signal, PHF2 [17, 32]: 0.4724
Array Heatmap signal, KDM5A (3) [18, 32]: 0.5014
Array Heatmap signal, KDM7A [19, 32]: 0.5379
Array Heatmap signal, CHD4 (PPCC) [20, 32]: 0.6105
Array Heatmap signal, MORC3 (CW) [21, 32]: 0.436
Array Heatmap signal, PHRF1 (RP) [22, 32]: 0.4494
Array Heatmap signal, PHF23 [23, 32]: 0.5587
Array Heatmap signal, KDM5B (1) [24, 32]: 0.6556
Array Heatmap signal, CHD5 (PCC) [25, 32]: 0.8634
Array Heatmap signal, KDM5A (1) [26, 32]: 0.5024
Array Heatmap signal, RAG2 [27, 32]: 0.2892
Array Heatmap signal, KDM5B (3) [28, 32]: 0.5165
Array Heatmap signal, ING3 [29, 32]: 0.5178
Array Heatmap signal, MLL5 [30, 32]: 0.6174
Array Heatmap signal, PHF8 [31, 32]: 0.3706

H4R3me2a: H4 1-23 [Peptide H4R3me2a]
Array Heatmap signal, DPF2 (PPC2W2) ([1]; GST-tagged DPF2 (PPC2W2 = Dual PHD + C2W2-type Zn-finger), arrays performed twice, n of 4): 0.6681
Array Heatmap signal, PHF21A ([2]; GST-tagged PHF21A, arrays performed twice, n of 4): 0.4696
Array Heatmap signal, TAF3 ([3]; GST-tagged TAF3, arrays performed twice, n of 4): 0.3922
Array Heatmap signal, BAZ2B ([4]; GST-tagged BAZ2B, arrays performed twice, n of 4): 0.5399
Array Heatmap signal, ING4 ([5]; GST-tagged ING4, arrays performed twice, n of 4): 0.4842
Array Heatmap signal, KDM4C (TTP) ([6]; GST-tagged KDM4C (TTP = Tandem Tudor domain + PHD), arrays performed twice, n of 4): 0.5587
Array Heatmap signal, BPTF (PB) ([7]; GST-tagged BPTF (PB = PHD + Bromodomain), arrays performed twice, n of 4): 0.3886
Array Heatmap signal, CHD5 (PPCC) ([8]; GST-tagged CHD5 (PPCC = Dual PHD + Dual Chromodomain), arrays performed twice, n of 4): 0.5601
Array Heatmap signal, ING1 ([9]; GST-tagged ING1, arrays performed twice, n of 4): 0.5321
Array Heatmap signal, DIDO1 ([10]; GST-tagged DIDO1, arrays performed twice, n of 4): 0.7103
Array Heatmap signal, SP140L ([11]; GST-tagged SP140L, arrays performed twice, n of 4): 0.3676
Array Heatmap signal, ING5 ([12]; GST-tagged ING5, arrays performed twice, n of 4): 0.4061
Array Heatmap signal, ING2 ([13]; GST-tagged ING2, arrays performed twice, n of 4): 0.6586
Array Heatmap signal, TRIM66 (PB) ([14]; GST-tagged TRIM66 (PB = PHD + Bromodomain), arrays performed twice, n of 4): 0.665
Array Heatmap signal, PHF13 ([15]; GST-tagged PHF13, arrays performed twice, n of 4): 0.6445
Array Heatmap signal, AIRE (PP) ([16]; GST-tagged AIRE (PP), arrays performed twice, n of 4): 0.5327
Array Heatmap signal, PHF2 ([17]; GST-tagged PHF2, arrays performed twice, n of 4): 0.4976
Array Heatmap signal, KDM5A (3) ([18]; GST-tagged KDM5A (3), arrays performed twice, n of 4): 0.5304
Array Heatmap signal, KDM7A ([19]; GST-tagged KDM7A, arrays performed twice, n of 4): 0.5968
Array Heatmap signal, CHD4 (PPCC) ([20]; GST-tagged CHD4 (PPCC = Dual PHD + Dual Chromodomain), arrays performed twice, n of 4): 0.544
Array Heatmap signal, MORC3 (CW) ([21]; GST-tagged MORC3 (CW = CW-type Zn-finger), arrays performed twice, n of 4): 0.3932
Array Heatmap signal, PHRF1 (RP) ([22]; GST-tagged PHRF1 (RP), arrays performed twice, n of 4): 0.4379
Array Heatmap signal, PHF23 ([23]; GST-tagged PHF23, arrays performed twice, n of 4): 0.5402
Array Heatmap signal, KDM5B (1) ([24]; GST-tagged KDM5B (1), arrays performed twice, n of 4): 0.6754
Array Heatmap signal, CHD5 (PCC) ([25]; GST-tagged CHD5 (PCC = PHD + Dual Chromodomain), arrays performed twice, n of 4): 0.8242
Array Heatmap signal, KDM5A (1) ([26]; GST-tagged KDM5A (1), arrays performed twice, n of 4): 0.4898
Array Heatmap signal, RAG2 ([27]; GST-tagged RAG2, arrays performed twice, n of 4): 0.3803
Array Heatmap signal, KDM5B (3) ([28]; GST-tagged KDM5B (3), arrays performed twice, n of 4): 0.6206
Array Heatmap signal, ING3 ([29]; GST-tagged ING3, arrays performed twice, n of 4): 0.4883
Array Heatmap signal, MLL5 ([30]; GST-tagged MLL5, arrays performed twice, n of 4): 0.6462
Array Heatmap signal, PHF8 ([31]; GST-tagged PHF8, arrays performed twice, n of 4): 0.391
